Values of other authors, collected in patent publication US20260284040A1, “COMBINATION OF A PARP1 INHIBITOR AND A SELECTIVE ESTROGEN DEGRADER FOR TREATING CANCER” (ASTRAZENECA AB, priority 2023, published 2026).

Assays:
[1] = tested on: human bone marrow progenitor cells; conditions: in vitro
[2] = tested on: ER+ cell lines and PDX models; conditions: wide range of ER+ cell lines and PDX models, including ESR1m models
[3] = in vivo

Structure (SMILES) | Effects on human bone marrow progenitor cells [1] | Antitumour activities [2] | Oral bioavailability [3]
CCc1cc2ncc(CN3CCN(c4ccc(C(=O)NC)nc4)CC3)cc2[nH]c1=O [AZD5305, 5-{4-[(7-ethyl-6-oxo-5,6-dihydro-1,5-naphthyridin-3-yl)methyl]piperazin-1-yl}-N-methylpyridine-2-carboxamide] | reduced effects | – | –
C[C@@H]1Cc2c(ccc3[nH]ncc23)[C@@H](c2ccc(NC3CN(CCCF)C3)cn2)N1CC(F)(F)F [Camizestrant, N-[1-(3-fluoropropyl)azetidin-3-yl]-6-[(6S,8R)-8-methyl-7-(2,2,2-trifluoroethyl)-6,7,8,9-tetrahydro-3H-pyrazolo[4,3-]isoquinolin-6-yl]-pyridin-3-amine] | – | demonstrated antitumour activities | orally bioavailable
C[C@]12CC[C@@H]3c4ccc(O)cc4C[C@@H](CCCCCCCCC[S+]([O-])CCCC(F)(F)C(F)(F)F)[C@H]3[C@@H]1CC[C@@H]2O (stereo partly shown) [fulvestrant] | – | – | not orally bioavailable
